Source: patent US9221761B2, “Method for inhibition of deubiquitinating activity” (Vivolux AB, priority 2011, dated 2015)

What was measured:
[1] = test system: HCT116; assay: FMCA (Fluorometric Microculture Cytotoxicity Assay) cytotoxicity; assay type: cell-based; conditions: 72 hours of continuous compound exposure
Method: FIGS. 1a to 1o are diagrams illustrating induction of dose-dependent cytotoxicity after 72 hours of continuous compound exposure to the reporter cell line HCT-116 by embodiments of the compound of the invention, as measured FMCA (Fluorometric Microculture Cytotoxicity Assay), as well as absence of such induction by structurally related compounds not comprised by the invention. Treated cells were compared to untreated controls (survival index);
Determination of cell apoptosis and viability. For determination of apoptosis parental HCT-116 p53+/+ cells are treated with the increasing doses of the compound of the invention for 24 h. […] HCT-116 cells are seeded in 96-well microtiter plates at 10,000 cells per well and incubated overnight. Cells are treated with indicated drug for 24 h. At the end of the incubation period, NP40 is added to the tissue culture medium to 0.1% and 25 μl of the content of each well was assayed using the M30-Apoptosense® ELISA as previously described (31). Cell viability is determined by measuring acid phosphatase activity or using the FMCA method (32). For the acid phosphatase activity cells are seeded at 5000 cells per well in 96-well culture plates and incubated for 12 h at 37° C. Compounds are added to the cells in growth media and incubated for 72 h at 37° C. Cells are washed with 200 μl warm PBS. 100 μl of para-nitrophenyl phosphate (pNPP, 2 mg/ml) in Na acetate buffer pH 5 (NaAc 0.1 M, 0.1% Triton-X-100) is added per well. Cells are incubated for 2 h after which reaction was stopped by addition of 1N NaOH. Absorbance is measured at 405 nm. The dose-dependent cytotoxicity of a number of embodiments of the compound of the invention is illustrated in FIGS. 1a-1o.
For the FMCA assay cells are seeded in the drug-prepared 384-well plates using the pipetting robot Precision 2000 (Bio-Tek Instruments Inc., Winooski, Vt.). The plates are incubated for 72 h and then transferred to an integrated HTS SAIGAN Core System consisting of an ORCA robot (Beckman Coulter) with CO2 incubator (Cytomat 2C, Kendro, Sollentuna, Sweden), dispenser module (Multidrop 384, Titertek, Huntsville, Ala.), washer module (ELx 405, Bio-Tek Instruments Inc), delidding station, plate hotels, barcode reader (Beckman Coulter), liquid handler (Biomek 2000, Beckman Coulter) and a multipurpose reader (FLUOstar Optima, BMG Labtech GmbH, Offenburg, Germany) for automated FMCA. Survival index (SI) is defined as the fluorescence of test wells in percentage of controls with blank values subtracted.
FIGS. 3b, 3d, 3f are diagrams illustrating the cytotoxicity of compounds of the invention nos. 1546, 1547, and 1570 with a 7-membered ring moiety in comparison to structurally corresponding compounds not comprised by the invention with a 6-membered ring moiety. Their induction of dose-dependent cytotoxicity was determined after 72 hours of continuous compound exposure to the reporter cell line HCT-116. Treated cells were compared with untreated controls. Cytotoxicity is visualized as survival index (SI) over the range of about 90% SI to about 0% SI in dependence on compound concentration.

[2] = test system: MelJuSo Ub-YFP reporter cell line; assay: Proteasome inhibition in reporter cell line, YFP accumulation in IncuCyte-FLR; assay type: cell-based; conditions: YFP accumulation measured for 48 hours; for MeJuSo-UB, IncuCyte lowest effective conc.: Table 1; for MeJuSo-UB, lowest effective conc.: Table 2
From the text: Cell culture. MCF7 cells are maintained in MEM/10% fetal calf serum. HCT-116 p53+/+, p53−/−, Bcl-2+/+, PUMA−/− and BAX−/− cells are maintained in McCoy's 5A modified medium/10% fetal calf serum. The HCT-116 p53+/+, p53−/−, PUMA−/− and BAX−/− are generated as described (25). The HCT-116 Bcl-2+/+ cell line was generated by transfecting parental HCT-116 p53+/+ cells with pCEP4 Bcl-2 (Addgene plasmid 16461) (26) and isolating high expression clones. FaDu and LLC3 cells are maintained in DMEM high glucose medium supplemented with 10% fetal calf serum, Na pyruvate, Hepes and non-essential amino acids. 4T1.12B carcinoma cells are maintained in RPMI medium supplemented with 10% fetal calf serum. The proteasome reporter cell line MelJuSo Ub-YFP was generated as described (12). Cells were maintained in Dulbecco's Modified Eagle's Medium/10% fetal calf serum. […] The retinal epithelial cell line was generated as described (28). All cells are maintained at 37° C. in 5% CO2.
The compound of the invention induces proteasome inhibition. The reporter cell line MelJuSo Ub-YFP, which is engineered to accumulate yellow fluorescent protein (YFP) upon proteasome inhibition (12), was used for compound evaluation. The accumulation of YFP was measured for 48 hours in an IncuCyte-FLR system (Essen Bioscience, Essen, UK), which is an automated fluorescence microscope. Numbers of positive cells per field were used as a measure of proteasome inhibition.

## O=C(O)C(F)(F)F.O=C1/C(=C/c2ccc([N+](=O)[O-])cc2)CCN(C(=O)[C@H]2CCCN2)C/C1=C\c1ccc([N+](=O)[O-])cc1 [Compound 1505, (2R)-2-{[(3E,5E)-3,5-bis[(4-nitrophenyl)methylidene]-4-oxoazepan-1-carbonyl}pyrrolidinium trifluoroacetate]
[1]; Table 2
  IC50: 5200 nM

## CN1CCC(=Cc2ccc(F)cc2)C(=O)C(=Cc2ccc(F)cc2)C1 [Compound 1564]
[1]; Table 1
  IC50: 900 nM
[2]
  MeJuSo-UB, IncuCyte lowest effective conc.: 16 µM

## CC(=O)OCCC(=O)N1CCC(=Cc2ccc(F)c([N+](=O)[O-])c2)C(=O)C(=Cc2ccc(F)c([N+](=O)[O-])c2)C1 [Compound 1662]
[1]; Table 2
  IC50: 2100 nM
[2]
  MeJuSo-UB, lowest effective conc.: 1 µM

## O=C1C(=Cc2ccc([N+](=O)[O-])cc2)CCNCC1=Cc1ccc(Cl)cc1 [Compound 1591]
[1]; Table 1
  IC50: 900 nM
[2]
  MeJuSo-UB, IncuCyte lowest effective conc.: 0.5 µM

## O=C1C(=Cc2cc(F)c(F)c(F)c2)CCN(C(=O)Cc2cccnc2)CC1=Cc1cc(F)c(F)c(F)c1 [Compound 1650]
[1]; Table 2
  IC50: 1900 nM
[2]
  MeJuSo-UB, lowest effective conc.: 1 µM

## O=C(Cc1ccccn1)C(=O)N1CCC(=Cc2ccc(Cl)c(C(F)(F)F)c2)C(=O)C(=Cc2ccc(Cl)c(C(F)(F)F)c2)C1 [Compound 1658]
[1]; Table 2
  IC50: 800 nM
[2]
  MeJuSo-UB, lowest effective conc.: 0.5 µM

## COc1ccc(C=C2CN(C)CCC(=Cc3ccc([N+](=O)[O-])cc3)C2=O)cc1 [Compound 1588]
[1]; Table 1
  IC50: 3100 nM
[2]
  MeJuSo-UB, IncuCyte lowest effective conc.: 1 µM

## CC(=O)N1CCC(=Cc2ccc([N+](=O)[O-])cc2)C(=O)C(=Cc2ccc([N+](=O)[O-])cc2)C1 [Compound 1567]
[1]; Table 2
  IC50: 600 nM
[2]
  MeJuSo-UB, lowest effective conc.: 0.5 µM

## CN1CCC(=Cc2cccc([N+](=O)[O-])c2)C(=O)C(=Cc2cccc([N+](=O)[O-])c2)C1 [Compound 1566]
[1]; Table 1
  IC50: 2300 nM
[2]
  MeJuSo-UB, IncuCyte lowest effective conc.: 0.5 µM

## CN1CCC(=Cc2ccc(C#N)cc2)C(=O)C(=Cc2ccc(C#N)cc2)C1 [Compound 1621]
[1]; Table 1
  IC50: 4500 nM
[2]
  MeJuSo-UB, IncuCyte lowest effective conc.: 2 µM

## CN1CCC(=Cc2ccc(F)c([N+](=O)[O-])c2)C(=O)C(=Cc2ccc(F)c([N+](=O)[O-])c2)C1 [Compound 1565]
[1]; Table 1
  IC50: 1500 nM
[2]
  MeJuSo-UB, IncuCyte lowest effective conc.: 0.5 µM

## CC(=O)N1CCC(=Cc2ccc(F)c(F)c2)C(=O)C(=Cc2ccc(F)c(F)c2)C1 [Compound 1628]
[1]; Table 2
  IC50: 2300 nM
[2]
  MeJuSo-UB, lowest effective conc.: 1 µM

## C=CC(=O)N1CCC(=Cc2ccc(F)cc2)C(=O)C(=Cc2ccc(F)cc2)C1 [Compound 1569]
[1]; Table 2
  IC50: 2000 nM
[2]
  MeJuSo-UB, lowest effective conc.: 4 µM

## CN1CCC(=Cc2ccc(C(F)(F)F)cc2)C(=O)C(=Cc2ccc(C(F)(F)F)cc2)C1 [Compound 1617]
[1]; Table 1
  IC50: 1600 nM
[2]
  MeJuSo-UB, IncuCyte lowest effective conc.: 1 µM

## O=C1C(=Cc2ccc(F)cc2)CCNCC1=Cc1ccc([N+](=O)[O-])cc1 [Compound 1585]
[1]; Table 1
  IC50: 1500 nM
[2]
  MeJuSo-UB, IncuCyte lowest effective conc.: 2 µM

## CN1CCC(=Cc2cc(F)cc(C(F)(F)F)c2)C(=O)C(=Cc2cc(F)cc(C(F)(F)F)c2)C1 [Compound 1612]
[1]; Table 1
  IC50: 700 nM
[2]
  MeJuSo-UB, IncuCyte lowest effective conc.: 0.25 µM

## CCCN1CC/C(=C\c2ccc(F)cc2)C(=O)/C(=C/c2ccc(F)cc2)C1 [Compound 1574, (3E,5E)-3,5-bis[(4-fluorophenyl)methylidene]-1-propylazepan-4-one]
[1]; Homo sapiens, HCT-116, Table 1
  IC50: 2800 nM
[2]
  MeJuSo-UB, IncuCyte lowest effective conc.: 0.5 µM

## N#Cc1cc(C=C2CCNCC(=Cc3ccc(F)c(C#N)c3)C2=O)ccc1F [Compound 1623]
[1]; Table 1
  IC50: 1000 nM
[2]
  MeJuSo-UB, IncuCyte lowest effective conc.: 0.5 µM

## CC(=O)OCC(=O)N1CC/C(=C\c2ccc(C(F)(F)F)cc2)C(=O)/C(=C/c2ccc(C(F)(F)F)cc2)C1 [Compound 1642]
[1]; Table 2
  IC50: 1200 nM
[2]
  MeJuSo-UB, lowest effective conc.: 1 µM

## COc1ccc(/C=C2\CNCC/C(=C\c3ccc([N+](=O)[O-])cc3)C2=O)cc1 [Compound 1575, (3E,5E)-3-[(4-methoxyphenyl)methylidene]-5-[(4-nitrophenyl)methylidene]azepan-4-one]
[1]; Homo sapiens, HCT-116, Table 1
  IC50: 2100 nM
[2]
  MeJuSo-UB, IncuCyte lowest effective conc.: 1 µM

## COc1ccc(C=C2CN(C(C)=O)CCC(=Cc3ccc([N+](=O)[O-])cc3)C2=O)cc1 [Compound 1581]
[1]; Table 2
  IC50: 7200 nM
[2]
  MeJuSo-UB, lowest effective conc.: 8 µM

## O=C1C(=Cc2ccc(Cl)cc2)CCN(C(=O)C2CCC2)CC1=Cc1ccc(Cl)cc1 [Compound 1527]
[2]
  MeJuSo-UB, lowest effective conc.: 2 µM

## O=C1/C(=C/c2ccc(F)c([N+](=O)[O-])c2)CCN(C(=O)Cc2ccccn2)C/C1=C\c1ccc(F)c([N+](=O)[O-])c1 [Compound 1648]
[1]; Table 2
  IC50: 800 nM
[2]
  MeJuSo-UB, lowest effective conc.: 0.5 µM

## CN1CCC(=Cc2ccc(C(F)(F)F)c(F)c2)C(=O)C(=Cc2ccc(C(F)(F)F)c(F)c2)C1 [Compound 1624]
[1]; Table 1
  IC50: 1800 nM
[2]
  MeJuSo-UB, IncuCyte lowest effective conc.: 1 µM

## COc1ccc(C=C2CN(C)CCC(=Cc3ccc(Cl)cc3)C2=O)cc1 [Compound 1590]
[1]; Table 1
  IC50: 2000 nM
[2]
  MeJuSo-UB, IncuCyte lowest effective conc.: 1 µM

## CC(=O)N1CCC(=Cc2cc(F)c(F)c(F)c2)C(=O)C(=Cc2cc(F)c(F)c(F)c2)C1 [Compound 1629]
[1]; Table 2
  IC50: 600 nM
[2]
  MeJuSo-UB, lowest effective conc.: 1 µM

## CN1CCC(=Cc2ccc(Cl)cc2)C(=O)C(=Cc2ccc(F)cc2)C1 [Compound 1589]
[1]; Table 1
  IC50: 2500 nM
[2]
  MeJuSo-UB, IncuCyte lowest effective conc.: 1 µM

## O=C1/C(=C/c2ccc(C(F)(F)F)cc2)CCN(C(=O)Cc2ccccn2)C/C1=C\c1ccc(C(F)(F)F)cc1 [Compound 1644]
[1]; Table 2
  IC50: 1400 nM
[2]
  MeJuSo-UB, lowest effective conc.: 1 µM

## O=C(O)C(F)(F)F.O=C1/C(=C/c2ccc([N+](=O)[O-])cc2)CCN(C(=O)[C@H]2CCCN2)C/C1=C\c1ccc([N+](=O)[O-])cc1 [Compound 1505]
[2]
  MeJuSo-UB, lowest effective conc.: 16 µM

## O=C1C(=Cc2cccc([N+](=O)[O-])c2)CCNCC1=Cc1cccc([N+](=O)[O-])c1 [Compound 1535]
[1]; Table 1
  IC50: 5900 nM

## O=C1/C(=C/c2ccccc2)CCNC/C1=C\c1ccccc1 [Compound 1516, (3E,5E)-3,5-Bis(phenylmethylidene)azepan-4-one]
[2]
  MeJuSo-UB, IncuCyte lowest effective conc.: 1.2 µM

## O=C1C(=Cc2ccc([N+](=O)[O-])cc2)CCNCC1=Cc1ccc([N+](=O)[O-])cc1 [Compound 1537]
[1]; Table 1
  IC50: 4100 nM

## O=C1C(=Cc2ccccc2[N+](=O)[O-])CCNCC1=Cc1ccccc1[N+](=O)[O-] [Compound 1536]
[1]; Table 1
  IC50: 6900 nM

## O=C1/C(=C/c2cccc([N+](=O)[O-])c2)CCNC/C1=C\c1ccccc1 [Compound 1560, (3E,5E)-5-[(3-nitrophenyl)methylidene]-3-(phenylmethylidene)azepan-4-one]
[1]; Homo sapiens, HCT-116, Table 1
  IC50: 1000 nM

## O=C1/C(=C/c2ccc(Cl)cc2)CCNC/C1=C\c1ccc(Cl)cc1 [Compound 1518, (3E,5E)-3,5-bis[(4-chlorophenyl)methylidene]azepan-4-one]
[2]
  MeJuSo-UB, IncuCyte lowest effective conc.: 1.6 µM
